Measurements taken from ChEMBL document CHEMBL3120149, “A multiple free-radical scavenging (MULTIS) study on the antioxidant capacity of a neuroprotective drug, edaravone as compared with uric acid, glutathione, and trolox” (Bioorg Med Chem Lett, 2014).

Assays:
Assay type in all cases: functional
[1] = Antioxidant activity assessed as riboflavin/EDTA-induced superoxide anion radical scavenging activity by ESR spin trapping method
[2] = Antioxidant activity assessed as t-butylhyroperoxide-induced alkylperoxyl radical scavenging activity by ESR spin trapping method relative to CYPMPO
[3] = Antioxidant activity assessed as H2O2-induced hydroxyl radical scavenging activity by ESR spin trapping method relative to CYPMPO
[4] = Antioxidant activity assessed as DMSO/H2O2-induced methyl radical scavenging activity by ESR spin trapping method relative to DMPO
[5] = Antioxidant activity assessed as DMSO/H2O2-induced methyl radical scavenging activity by ESR spin trapping method
[6] = Antioxidant activity assessed as rosebengal-induced singlet oxygen radical scavenging activity by ESR spin trapping method relative to 4-OH-TEMP
[7] = Antioxidant activity assessed as AAPH-induced alkoxyl radical scavenging activity by ESR spin trapping method
[8] = Antioxidant activity assessed as AAPH-induced alkoxyl radical scavenging activity by ESR spin trapping method relative to CYPMPO
[9] = Antioxidant activity assessed as H2O2-induced hydroxyl radical scavenging activity by ESR spin trapping method
[10] = Antioxidant activity assessed as rosebengal-induced singlet oxygen radical scavenging activity by ESR spin trapping method
[11] = Antioxidant activity assessed as riboflavin/EDTA-induced superoxide anion radical scavenging activity by ESR spin trapping method relative to CYPMPO
[12] = Antioxidant activity assessed as t-butylhyroperoxide-induced alkylperoxyl radical scavenging activity by ESR spin trapping method
[13] = Antioxidant activity assessed as hydroxyl radical scavenging activity
[14] = Antioxidant activity assessed as DMPO/H2O2-induced hydroxyl radical scavenging activity by fast-flow EPR technique

**Q.** For `N[C@@H](CCC(=O)N[C@@H](CS)C(=O)NCC(=O)O)C(=O)O`, which K [1] is on record?
**A.** 1.12 ×10³ /M/s

**Q.** And the Ratio [2]?
**A.** 4.09

**Q.** What about the Ratio [3] of the same molecule?
**A.** 1.59

**Q.** And the Ratio [4]?
**A.** 0.142

**Q.** And the K [5]?
**A.** 1.99 ×10⁶ /M/s

**Q.** What about the Ratio [6] of the same molecule?
**A.** 10400

**Q.** And the K [7]?
**A.** 2.73 ×10⁶ /M/s

**Q.** What about the Ratio [8] of the same molecule?
**A.** 121

**Q.** And the K [9]?
**A.** 16.5 ×10⁹ /M/s

**Q.** What about the K [10] of the same molecule?
**A.** 939 ×10⁶ /M/s

**Q.** And the Ratio [11]?
**A.** 23.3

**Q.** With `Cc1c(C)c2c(c(C)c1O)CCC(C)(C(=O)O)O2` (stereo not given) as the molecule, how does the K [1] read?
**A.** 2.1 ×10³ /M/s

**Q.** And the Ratio [2]?
**A.** 0

**Q.** What about the K [12] of the same molecule?
**A.** 0 M⁻¹ s⁻¹

**Q.** What about the Ratio [3] of the same molecule?
**A.** 23.8

**Q.** And the Ratio [4]?
**A.** 0.337

**Q.** What about the K [5] of the same molecule?
**A.** 4.72 ×10⁶ /M/s

**Q.** What about the Ratio [6] of the same molecule?
**A.** 692

**Q.** And the K [7]?
**A.** 4.83 ×10⁶ /M/s

**Q.** And the Ratio [8]?
**A.** 214

**Q.** And the K [9]?
**A.** 24.8 ×10⁹ /M/s

**Q.** And the K [10]?
**A.** 62.2 ×10⁶ /M/s

**Q.** And the Ratio [11]?
**A.** 43.8

**Q.** With `CC1(C)CCC=[N+]1[O-]` as the molecule, how does the K [5] read?
**A.** 1.4 ×10⁷ /M/s

**Q.** What about the K [9] of the same molecule?
**A.** 2.8 ×10⁹ /M/s

**Q.** Which K [1] does the source give for `CC1=NN(c2ccccc2)C(=O)C1` here?
**A.** 2.93 ×10³ /M/s

**Q.** And the Ratio [2]?
**A.** 39

**Q.** And the Ratio [3]?
**A.** 28.7

**Q.** And the Ratio [4]?
**A.** 2.14

**Q.** What about the K [5] of the same molecule?
**A.** 30 ×10⁶ /M/s

**Q.** What about the Ratio [6] of the same molecule?
**A.** 306

**Q.** And the K [7]?
**A.** 3.16 ×10⁶ /M/s

**Q.** And the Ratio [8]?
**A.** 139

**Q.** What about the K [13] of the same molecule?
**A.** 1.4 ×10¹⁰ /M/s

**Q.** What about the K [9] of the same molecule?
**A.** 298 ×10⁹ /M/s

**Q.** What about the K [10] of the same molecule?
**A.** 27.5 ×10⁶ /M/s

**Q.** What about the K [14] of the same molecule?
**A.** 3 ×10¹⁰ /M/s

**Q.** What about the Ratio [11] of the same molecule?
**A.** 61.1

**Q.** For `C[C@@H]1O[C@@H](OC[C@H]2O[C@@H](Oc3c(-c4ccc(O)c(O)c4)oc4cc(O)cc(O)c4c3=O)[C@H](O)[C@@H](O)[C@@H]2O)[C@H](O)[C@H](O)[C@H]1O`, which K [1] is on record?
**A.** 1.5 ×10⁴ /M/s

**Q.** What about the K [7] of the same molecule?
**A.** 6.9 ×10⁶ /M/s

**Q.** And the K [10]?
**A.** 3.5 ×10⁸ /M/s

**Q.** With `Oc1nc(O)c2nc(O)[nH]c2n1` as the molecule, how does the K [1] read?
**A.** 10.7 ×10³ /M/s

**Q.** What about the Ratio [2] of the same molecule?
**A.** 0

**Q.** And the K [12]?
**A.** 0 M⁻¹ s⁻¹

**Q.** And the Ratio [3]?
**A.** 0.894

**Q.** What about the Ratio [4] of the same molecule?
**A.** 0

**Q.** And the K [5]?
**A.** 0 M⁻¹ s⁻¹

**Q.** What about the Ratio [6] of the same molecule?
**A.** 25.7

**Q.** What about the K [7] of the same molecule?
**A.** 9.9 ×10⁶ /M/s

**Q.** And the Ratio [8]?
**A.** 436

**Q.** What about the K [9] of the same molecule?
**A.** 9.3 ×10⁹ /M/s

**Q.** What about the K [10] of the same molecule?
**A.** 2.31 ×10⁶ /M/s

**Q.** And the Ratio [11]?
**A.** 222

**Q.** With `CC1(C)COP(=O)(C2(C)CCC=[N+]2[O-])OC1` (stereo not given) as the molecule, how does the K [1] read?
**A.** 48 M⁻¹ s⁻¹

**Q.** What about the K [7] of the same molecule?
**A.** 2.27 ×10⁴ /M/s
